The values that follow come from patent US9681664B2, “Macrocyclic picolinamides as fungicides” (Dow Agrosciences LLC, priority 2012, dated 2017).

Where two headings read alike, the source gives them in different places.

Holding throughout (type): in vivo
Assay [1] relates to Puccinia triticina; Synonym: Puccinia recondite f. sp. tritici. Description: Wheat brown rust (PUCCRT) disease control on wheat seedlings. The conditions noted are these: Puccinia triticina; for pest or weed control at 121.5 g/ha: low volume application, 121.5 g/H. The method, boiled down:
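Yuma wheat grown to first fully emerged leaf was inoculated with Puccinia triticina spore suspension either before or after fungicide treatment, held overnight at 22° C. and 100% RH in darkness, then kept at 24° C. Fungicide applied by booth sprayer to run-off (acetone/water, 110 ppm Triton X-100) or as EC by track spray.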

For a further assay, the system named is Uncinula necator. Nature of the assay: Grape powdery mildew (UNCINE) disease control. The conditions noted are these: Erysiphe necator, 24 h, High volume application, 1 Day Protectant, read-out: UNCINE 1 DP disease control. The method, boiled down:
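About one-month-old Carignane grape seedlings were sprayed to run-off with compound in acetone diluted with nine volumes of water containing 110 ppm Triton X-100, then air-dried. Plants were inoculated 24 hr after treatment by shaking spores from infected leaves. They were kept in a greenhouse at 20° C until disease developed, and sprayed leaves were then scored.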

For another assay, the system named is Erysiphe cichoracearum. Nature of the assay: Powdery mildew of cucumber (ERYSCI) disease control. The settings on record: Golovinomyces cichoracearum, 24 h, 1 Day Protectant, high volume, read-out: Disease Control ERYSCI 1 DP.
In the next assay the test system is Rhyncosporium secalis. Nature of the assay: Barley scald (RHYNSE) disease control. The conditions noted are these: 24 h, High volume application, 1 Day Protectant, read-out: RHYNSE 1 DP disease control.
Another assay relates to Alternaria solani. Nature of the assay: Tomato early blight (ALTESO) disease control. The conditions noted are these: 24 h, 1 Day Protectant, high volume, read-out: Disease Control ALTESO 1 DP. Summed up: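 Compound in acetone was diluted with nine volumes of water containing 110 ppm Triton X-100 and sprayed to run-off on 12–14-day-old tomato plants. After 24 hr the plants were inoculated with Alternaria solani spores, held at 100% RH (1 day dark, then 2–3 days lighted dew chamber, 20° C.), and then moved to 22° C. for disease development before scoring.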

In assay [2] the test system is Glomerella lagenarium; Anamorph: Colletotrichum lagenarium. Description: Cucumber anthracnose (COLLLA) disease control. The conditions noted are these: Colletotrichum orbiculare, 24 h, 1 Day Protectant, high volume, read-out: Disease Control COLLLA 1 DP. Summed up:
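Compounds were dissolved in acetone, diluted with nine volumes of water containing 110 ppm Triton X-100 and sprayed to run-off on 12–14-day-old Bush Pickle cucumber seedlings. Plants were spore-inoculated 24 hr later and held 48 hr at 22 °C and 100% RH, then in a 22 °C growth room. Disease on sprayed leaves was then assessed.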

Setting [3] is: 24 h, Wheat Brown Rust, 1 Day Protectant, read-out: Disease Control PUCCRT 1 DP 121.5 g/H.
The mark [4] stands for this setting: 72 h, Wheat Brown Rust, 3 Day Curative, read-out: Disease Control PUCCRT 3 DC 121.5 g/H.

For `COc1ccnc(C(=O)N[C@H]2CCC[C@H](Oc3ccccc3)[C@@H](OC(=O)C3CC3)[C@H](C)OC2=O)c1OC(C)=O` [F242], the pest or weed control at 100 ppm in assay [1] (24 h, Wheat Brown Rust, 1 Day Protectant, high volume application, read-out: Disease Control PUCCRT 1 DP 100 ppm) was 80 to 100%; in assay [1] (72 h, Wheat Brown Rust, 3 Day Curative, high volume application, read-out: Disease Control PUCCRT 3 DC 100 ppm), 80 to 100%; in the assay on Uncinula necator it was 0 to 80%; in the assay with Erysiphe cichoracearum, less than 0%; in the assay on Rhyncosporium secalis it was less than 0%; in the assay with Alternaria solani, less than 0%. Moreover, the pest or weed control at 100 ppm in assay [2] fell in the range of 80 to 100%. Also, the pest or weed control at 121.5 g/ha fell in the range of 80 to 100% in assay [1] (setting [3]) and 0 to 80% in assay [1] (setting [4]).
On to `COc1ccnc(C(=O)N[C@H]2CCC[C@H](OCC(C)C)[C@@H](OC)[C@H](C)OC2=O)c1OCOC(C)=O` [F251], for which the pest or weed control at 121.5 g/ha in assay [1] (setting [3]) and in assay [1] (setting [4]) was 80 to 100% in each case. Further, the pest or weed control at 100 ppm with Uncinula necator is 0 to 80%; in the assay with Erysiphe cichoracearum it was less than 0%; in the assay on Rhyncosporium secalis, 0 to 80%; with Alternaria solani it was 0 to 80%; in assay [2] it was 80 to 100%.
For the compound `CCCO[C@H]1CCC[C@H](NC(=O)c2nccc(OC)c2OCOC(=O)C(C)C)C(=O)O[C@@H](C)[C@@H]1Oc1ccccc1` [F139], the pest or weed control at 100 ppm in assay [1] (24 h, High volume application, 1 Day Protectant, read-out: PUCCRT 1DP disease control) lay within 80 to 100%; in assay [1] (72 h, High volume application, 3 Day Curative, read-out: PUCCRT 3DC disease control), 80 to 100%; in the assay with Uncinula necator, 0 to 80%; in the assay on Erysiphe cichoracearum, 0 to 80%; in the assay with Rhyncosporium secalis, 80 to 100%; with Alternaria solani, 80 to 100%. For the same compound, the pest or weed control at 100 ppm in assay [2] was in the range of 80 to 100%.
